Where a name gives a salt, the structure may show the parent alone.
target: T1, human cloned 5-HT6 receptors (Homo sapiens, UniProt P50406); experiment: 5-HT6 binding affinity, [3H]-LSD displacement; conditions: membranes of Hela cells expressing human cloned 5-HT6 receptors; [3H]-LSD 3.0 nM; 120 minutes at room temperature
T1 construct: expressed in transfected cells; host or cells: HeLa cells
Procedure: The affinity of test compounds for the serotonin 5-HT6 receptor was evaluated in the following manner. Cultured Hela cells expressing human cloned 5-HT6 receptors were harvested and centrifuged at low speed (1,000×g) for 10.0 minutes to remove the culture media. The harvested cells were suspended in half volume of fresh physiological phosphate buffered saline solution and recentrifuged at the same speed. This operation was repeated. The collected cells were then homogenized in ten volumes of 50 mM Tris.HCl (pH 7.4) and 0.5 mM EDTA. The homogenate was centrifuged at 40,000×g for 30.0 min and the precipitate was collected. The obtained pellet was resuspended in 10 volumes of Tris.HCl buffer and recentrifuged at the same speed. The final pellet was suspended in a small volume of Tris.HCl buffer and the tissue protein content was determined in aliquots of 10-25 μl volumes. […] The volume of the suspended cell membranes was adjusted to give a tissue protein concentration of 1.0 mg/ml of suspension. The prepared membrane suspension (10 times concentrated) was aliquoted in 1.0 ml volumes and stored at −70° C. until used in subsequent binding experiments.
The bound complex caught on the filter disk was allowed to air dry and the radioactivity is measured in a Packard TopCount® equipped with six photomultiplier detectors, after the addition of 40.0 μl Microscint®-20 scintillant to each shallow well. The unifilter plate was heat-sealed and counted in a PackardTopCount® with a tritium efficiency of 31.0%.
Specific binding to the 5-HT6 receptor was defined as the total radioactivity bound less the amount bound in the presence of 10.0 μM unlabeled methiothepin. Binding in the presence of varying concentrations of test compound was expressed as a percentage of specific binding in the absence of test compound. The results were plotted as log % bound versus log concentration of test compound. […] A linear regression line of data points was plotted, from which the IC50 value is determined and the Ki value is determined based upon the following equation: Ki=IC50/(1+L/KD) where L was the concentration of the radioactive ligand used and KD is the dissociation constant of the ligand for the receptor, both expressed in nM.

T1 sequence (P50406 whole entry): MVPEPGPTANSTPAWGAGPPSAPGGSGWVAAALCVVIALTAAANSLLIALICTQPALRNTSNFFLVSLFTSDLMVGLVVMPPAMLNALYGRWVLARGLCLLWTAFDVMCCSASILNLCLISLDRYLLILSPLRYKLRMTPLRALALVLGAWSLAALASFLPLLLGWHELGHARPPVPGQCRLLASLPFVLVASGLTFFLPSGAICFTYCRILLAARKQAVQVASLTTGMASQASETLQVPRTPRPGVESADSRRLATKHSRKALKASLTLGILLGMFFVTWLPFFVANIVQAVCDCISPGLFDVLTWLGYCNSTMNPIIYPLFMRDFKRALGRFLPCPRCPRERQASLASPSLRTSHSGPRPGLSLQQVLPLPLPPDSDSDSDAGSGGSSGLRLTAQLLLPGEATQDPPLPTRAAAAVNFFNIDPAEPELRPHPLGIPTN

Compound | Ki
O=S(=O)(c1cccc2ccccc12)c1nn(Cc2cccc(Cl)c2)c2ccc(OCCN3CCCC3)cc12 [Example 58, 1-(3-Chloro-benzyl)-3-(naphthalene-1-sulfonyl)-5-(2-pyrrolidin-1-yl-ethoxy)-1H-indazole] | 26 to 35 nM
COc1cc(OCCN2CCCCC2)c2c(c1)c(S(=O)(=O)c1cccc3ccccc13)nn2Cc1cccc(Cl)c1 [Example 122] | 0.01 to 10 nM
COc1cc(OCCN2CCCC2)c2c(c1)c(S(=O)(=O)c1cccc3ccccc13)nn2Cc1cccc(Cl)c1 [Example 123] | > 45 nM
CN(C)CCCOc1cccc2c(S(=O)(=O)c3cccc4ccccc34)n[nH]c12 [Example 136] | 36 to 45 nM
NCCCCc1ccc2[nH]nc(S(=O)(=O)c3cccc4ccccc34)c2c1 [Example 189, {4-[3-(Naphthylsulfonyl)-1H-indazol-5-yl]butyl}amine hydrochloride] | 0.01 to 10 nM
O=S(=O)(c1cccc2ccccc12)c1n[nH]c2c(OCCN3CCCC3)cccc12 [Example 81] | 0.01 to 10 nM
NCCCCc1ccc2[nH]nc(S(=O)(=O)c3ccccc3)c2c1 [Example 181, {4-[3-(Phenylsulfonyl)-1H-indazol-5-yl]butyl}amine hydrochloride] | 26 to 35 nM
CCCCNCCCOc1ccc2[nH]nc(S(=O)(=O)c3cccc4ccccc34)c2c1 [Example 19, Butyl-{3-[3-(naphthalene-1-sulfonyl)-1H-indazol-5-yloxy]-propyl}-amine] | 0.01 to 10 nM
CCN(CC)CCCOc1ccc2[nH]nc(S(=O)(=O)c3cccc4ccccc34)c2c1 [Example 18, Diethyl-{3-[3-(naphthalene-1-sulfonyl)-1H-indazol-5-yloxy]-propyl}-amine] | 0.01 to 10 nM
NCCOc1cc(F)cc2c(S(=O)(=O)c3cccc4ccccc34)nn(Cc3cccc(Cl)c3)c12 [Example 106, (2-{[1-(3-Chlorobenzyl)-5-fluoro-3-(1-naphthylsulfonyl)-1H-indazol-7-yl]oxy}ethyl)amine] | > 45 nM
CCNCCOc1ccc2[nH]nc(S(=O)(=O)c3cccc4ccccc34)c2c1 [Example 32, Ethyl-{2-[3-(naphthalene-1-sulfonyl)-1H-indazol-5-yloxy]-ethyl}-amine] | 0.01 to 10 nM
NCCCc1ccc2[nH]nc(S(=O)(=O)c3ccccc3)c2c1 [Example 180, {3-[3-(Phenylsulfonyl)-1H-indazol-5-yl]propyl}amine trifluoroacetate] | 11 to 25 nM
CNCCCOc1ccc2[nH]nc(S(=O)(=O)c3cccc4ccccc34)c2c1 [Example 15, Methyl-{3-[3-(naphthalene-1-sulfonyl)-1H-indazol-5-yloxy]-propyl}-amine] | 0.01 to 10 nM
Cn1nc(S(=O)(=O)c2ccccc2)c2cccc(OCCN3CCCCC3)c21 [Example 105] | > 45 nM
O=S(=O)(c1cccc2ccccc12)c1nn(Cc2cccc(Cl)c2)c2c(OCCN3CCCC3)cc(F)cc12 [Example 112] | > 45 nM
CCNCCOc1ccc2c(c1)c(S(=O)(=O)c1cccc3ccccc13)nn2Cc1cccc(Cl)c1 [Example 60, {2-[1-(3-Chloro-benzyl)-3-(naphthalene-1-sulfonyl)-1H-indazol-5-yloxy]-ethyl}-ethyl-amine] | 11 to 25 nM
O=S(=O)(c1ccccc1)c1n[nH]c2ccc(OCCNC3CCCC3)cc12 [Example 9, 3-Benzenesulfonyl-5-(2-cyclopentyl-1-yl-ethoxy)-1H-indazole] | 11 to 25 nM
CN(C)CCOc1cccc2c(S(=O)(=O)c3cccc4ccccc34)n[nH]c12 [Example 78] | 0.01 to 10 nM
CC(C)NCCCc1ccc2[nH]nc(S(=O)(=O)c3ccccc3)c2c1 [Example 179, N-Isopropyl-N-{3-[3-(phenylsulfonyl)-1H-indazol-5-yl]propyl}amine trifluoroacetate] | > 45 nM
COc1cc(OCCN2CCCCC2)c2[nH]nc(S(=O)(=O)c3cccc4ccccc34)c2c1 [Example 126] | 0.01 to 10 nM
O=S(=O)(c1cccc2ccccc12)c1n[nH]c2ccc(OCCN3CCCC3)cc12 [Example 37, 3-(Naphthalene-1-sulfonyl)-5-(2-pyrrolidin-1-yl-ethoxy)-1H-indazole] | 0.01 to 10 nM
Cn1nc(S(=O)(=O)c2ccccc2)c2cccc(OCCN3CCCC3)c21 [Example 104] | 26 to 35 nM
O=C(c1ccc2[nH]nc(S(=O)(=O)c3cccc4ccccc34)c2c1)N1CCNCC1 [Example 202, 3-(1-Naphthylsulfonyl)-5-(piperazin-1 ylcarbonyl)-1H-indazole] | > 45 nM
O=S(=O)(c1cccc2ccccc12)c1nn(Cc2cccc(Cl)c2)c2c(OCCCN3CCCC3)cccc12 [Example 133] | 11 to 25 nM

Compound | Ki
CN(C)CCOc1ccc2c(c1)c(S(=O)(=O)c1cccc3ccccc13)nn2C [Example 41, Dimethyl-{2-[1-methyl-3-(naphthalene-1-sulfonyl)-1H-indazol-5-yloxy]-ethyl}-amine] | 0.01 to 10 nM
O=S(=O)(c1cccc2ccccc12)c1n[nH]c2ccc(OCCCCN3CCCC3)cc12 [Example 67] | 0.01 to 10 nM
CCCCNCCOc1cccc2c(S(=O)(=O)c3ccccc3)nn(Cc3cccc(Cl)c3)c12 [Example 85] | > 45 nM
CN(C)CCCOc1cccc2c(S(=O)(=O)c3cccc4ccccc34)nn(Cc3cccc(Cl)c3)c12 [Example 130] | > 45 nM
CC(C)NCCOc1ccc2[nH]nc(S(=O)(=O)c3ccccc3)c2c1 [Example 6, [2-(3-Benzenesulfonyl-1H-indazol-5-yloxy)-ethyl]-isopropyl-amine] | 11 to 25 nM
O=S(=O)(c1cccc2ccccc12)c1n[nH]c2cc(OCCN3CCCCC3)ccc12 [Example 149] | > 45 nM
CCN(CC)CCOc1cccc2c(S(=O)(=O)c3ccccc3)nn(Cc3cccc(Cl)c3)c12 [Example 84] | > 45 nM
C[C@@H]1CN(Cc2ccc3[nH]nc(S(=O)(=O)c4cccc5ccccc45)c3c2)CCN1 [Example 200] | 0.01 to 10 nM
NCCC(=O)Nc1ccc2[nH]nc(S(=O)(=O)c3cccc4ccccc34)c2c1 [Example 158, 3-Amino-N-[3-(naphthalene-1-sulfonyl)-1H-indazol-5-yl]-propionamide hydrochloride] | 0.01 to 10 nM
CNCCOc1ccc2[nH]nc(S(=O)(=O)c3cccc4ccccc34)c2c1 [Example 31, Methyl-{2-[3-(naphthalene-1-sulfonyl)-1H-indazol-5-yloxy]-ethyl}-amine] | 0.01 to 10 nM
CNCCOc1cc(OC)cc2c(S(=O)(=O)c3cccc4ccccc34)nn(Cc3cccc(Cl)c3)c12 [Example 119] | > 45 nM
COc1cc(OCCN2CCCC2)c2[nH]nc(S(=O)(=O)c3cccc4ccccc34)c2c1 [Example 127] | 11 to 25 nM
O=S(=O)(c1cccc2ccccc12)c1n[nH]c2ccc(OCCCCN3CCCCC3)cc12 [Example 61, 3-(1-naphthylsulfonyl)-5-(4-piperidin-1-ylbutoxy)-1H-indazole] | 0.01 to 10 nM
CN(C)CCCc1ccc2[nH]nc(S(=O)(=O)c3cccc4ccccc34)c2c1 [Example 182, N,N-Dimethyl-N-{3-[3-(naphthylsulfonyl)-1H-indazol-5-yl]propyl}amine hydrochloride] | 0.01 to 10 nM
CCNCCCOc1ccc2[nH]nc(S(=O)(=O)c3cccc4ccccc34)c2c1 [Example 16, Ethyl-{3-[3-(naphthalene-1-sulfonyl)-1H-indazol-5-yloxy]-propyl}-amine] | 0.01 to 10 nM
CCNCCOc1cccc2c(S(=O)(=O)c3cccc4ccccc34)nn(C)c12 [Example 95] | 0.01 to 10 nM
CCN(C)CCOc1ccc2c(c1)c(S(=O)(=O)c1cccc3ccccc13)nn2C [Example 42, Ethyl-methyl-{2-[1-methyl-3-(naphthalene-1-sulfonyl)-1H-indazol-5-yloxy]-ethyl}-amine] | 0.01 to 10 nM
CNCCOc1cc(OC)cc2c(S(=O)(=O)c3cccc4ccccc34)n[nH]c12 [Example 124] | 11 to 25 nM
CCNCCOc1cccc2c(S(=O)(=O)c3ccccc3)n[nH]c12 [Example 89] | 0.01 to 10 nM
CC(C)NCCOc1ccc2c(c1)c(S(=O)(=O)c1cccc3ccccc13)nn2C [Example 45, Isopropyl-{2-[1-methyl-3-(naphthalene-1-sulfonyl)-1H-indazol-5-yloxy]-ethyl}-amine] | 0.01 to 10 nM
CCN(CC)CCOc1ccc2c(c1)c(S(=O)(=O)c1cccc3ccccc13)nn2Cc1ccccc1 [Example 50, {2-[1-Benzyl-3-(naphthalene-1-sulfonyl)-1H-indazol-5-yloxy]-ethyl}-diethyl-amine] | 36 to 45 nM
CN1CCN(Cc2ccc3[nH]nc(S(=O)(=O)c4cccc5ccccc45)c3c2)CC1 [Example 196] | 0.01 to 10 nM
CNCCOc1ccc2c(c1)c(S(=O)(=O)c1cccc3ccccc13)nn2Cc1cccc(Cl)c1 [Example 59, {2-[1-(3-Chloro-benzyl)-3-(naphthalene-1-sulfonyl)-1H-indazol-5-yloxy]-ethyl}-methyl-amine] | > 45 nM
